Measured values as given in article PMC7835950 (Frontiers in Chemistry, 2021).
“And” between values parts separate entries of the source, which are not always exact repeats. Equal entries are not always repeated. Where two headings read alike, the source gives them in different places.

How the values were obtained:
OADH = target: T1, OADH (Rattus norvegicus, UniProt Q4KLP0); experiment: OADH reaction catalyzed by the enzyme preparation from rat liver, low [OA] (high-affinity OA sites); assay type: biochemical; conditions: for Ki / Amax: OADH reaction, liver; for Amax: high-affinity sites
T1 sequence (Q4KLP0 45-920 limits assumed): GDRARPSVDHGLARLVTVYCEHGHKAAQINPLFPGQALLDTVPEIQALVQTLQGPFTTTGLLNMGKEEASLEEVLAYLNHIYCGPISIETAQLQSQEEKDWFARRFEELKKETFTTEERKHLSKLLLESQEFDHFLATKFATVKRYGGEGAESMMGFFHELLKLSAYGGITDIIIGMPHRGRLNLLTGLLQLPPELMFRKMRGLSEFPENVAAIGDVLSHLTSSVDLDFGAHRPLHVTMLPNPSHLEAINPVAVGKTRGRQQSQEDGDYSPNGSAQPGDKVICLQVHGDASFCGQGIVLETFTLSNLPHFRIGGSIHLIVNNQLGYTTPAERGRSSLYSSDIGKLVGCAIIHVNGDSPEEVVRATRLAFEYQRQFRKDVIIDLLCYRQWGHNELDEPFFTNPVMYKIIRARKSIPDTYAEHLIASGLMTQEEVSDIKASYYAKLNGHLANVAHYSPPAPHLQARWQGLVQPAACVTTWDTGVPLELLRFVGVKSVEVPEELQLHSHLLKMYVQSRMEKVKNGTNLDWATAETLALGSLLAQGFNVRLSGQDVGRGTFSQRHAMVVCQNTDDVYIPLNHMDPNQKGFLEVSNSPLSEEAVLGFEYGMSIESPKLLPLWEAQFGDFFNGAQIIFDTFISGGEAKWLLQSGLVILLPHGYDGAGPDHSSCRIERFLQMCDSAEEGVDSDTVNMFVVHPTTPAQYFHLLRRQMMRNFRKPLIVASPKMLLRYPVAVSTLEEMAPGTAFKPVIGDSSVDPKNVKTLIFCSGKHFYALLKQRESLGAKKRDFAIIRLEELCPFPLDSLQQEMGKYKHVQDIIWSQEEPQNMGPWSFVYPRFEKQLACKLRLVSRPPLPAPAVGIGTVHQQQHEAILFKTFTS
Description: Enzymes catalyzing OGDH and OADH reactions were enriched from rat hearts and livers using polyethylene glycol precipitation, as previously described (Artiukhov et al., [2020]).
The enzyme activities were assayed in the medium (pH 7.0) containing 50 mM MOPS, 1 mM ThDP, 1 mM MgCl2, 1 mM CaCl2, 1 mM dithiothreitol 0.15 mM Coenzyme A, 0.25 mM NAD^+ and various concentrations of 2-oxo substrates (0–10 mM OG or OA) and their phosphonate analogs (0–5,000 μM SP, GP, or AP). Reactions were started by addition of the enzyme preparations to the assay media. The amount of enzyme preparations (0.074 mg protein for the preparation from liver and 0.023 mg protein for the preparation from heart) were chosen to induce the lowest reliably measured reaction rate (ΔA340 = 0.001/min) at 0.01 mM OA without the phosphonates.
Reaction rates were calculated from linear parts of the product accumulation curves (up to 10 min, dependent on the reaction rate), excluding the initial region, where mixing the reagents and solubilization of the preparation affected the optical density.
Non-linear regression was used to approximate the experimental dependences of the reaction rates on the OG or OA concentration according to the Michaelis-Menten equation ( a=Amax*[S]/Km+[S] ) or its sum ( a=Amax*[S]/Km+[S]+Amax,2*[S]/Km,2+[S] ). The former equation describes one type of the active sites. […] The assumption was based on the presence of the two enzymes, OGDH and OADH, in the employed preparations.
The kinetic data were also analyzed by linear regression, using the known methods of the linearization of the Michaelis-Menten equation in the Lineweaver-Burk ( 1/a=1/Amax(1+Km/[S]) ) and Eadie-Hofstee ( a=Amax−Kmv/[S] ) coordinates. Due to the several orders of magnitude difference in the values of Km,1 and Km,2, the linear regression required separate analysis of the dependencies in the intervals of the low and high concentrations of 2-oxoadipate. The Km and Amax values obtained in independent experiments using the non-linear and linear regression analyses of the experimental data, were averaged and presented as Mean ± Standard Error of Mean.
To determine the inhibition constants (Ki), the effective values of Kmeff and Amaxeff , calculated from the hyperbolic or linear approximations as described above, were plotted against the concentration of the inhibitors ([I]). The linear regression of the equation Kmeff/Amaxeff=Km/Amax(1+[I]/Ki) , (Cornish-Bowden, [1979]) was applied to find the Intercept (Km/Amax) and Slope (Km/(Amax*Ki)) of a dependence. The values of Ki were determined as the ratio of the corresponding Intercepts to the Slopes. In the two-site model, the Ki(1) and Ki(2) were calculated separately from the linear approximations of Km,1eff/Amax,1eff vs. [I] and Km,2eff/Amax,2eff vs. [I] dependences, respectively. The standard errors of Ki were determined from means and standard errors of the Intercepts and the Slopes, using the previously described formula for standard deviation of a fraction (Bunik et al., [1999]). The Ki values obtained from the non-linear and linear regression analyses of the experimental data were averaged and presented as Mean ± Standard Error of Mean.

[1] = Stability of the phosphonates and their esters during storage, by NMR; assay type: physicochemical; conditions: trisodium salts
Description: Stability of the purified phosphonates and their esterified precursor was analyzed by NMR after storage under the inert (pure argon) or ambient (air) atmosphere and in water solutions. ^1H, ^13C and ^31P NMR spectra were recorded at 400, 100.6, and 161.9 MHz, respectively with a Bruker Avance 400 spectrometer. Chemical shifts were calculated using D2O or CDCl3 as reference standards for trisodium salts and triesters, respectively. The spectra of the phosphonates and their esters before and after storage are shown in Supplementary Figures 1, 2 correspondingly.

[2] = low [OA] 0–0.05 mM, Michaelis-Menten, read-out: Ki, MM
[3] = low [OA], Eadie-Hofstee, read-out: Ki, EH
[4] = low [OA], Lineweaver-Burk, read-out: Ki, LB
[5] = low [OA], average, read-out: Ki, Average

Row | difference in the affinities of the two types of the sites to OA (OADH; hepatic preparation, low- vs high-affinity sites) | SMILES | Ki (OADH; [2]) | Ki (OADH; [3]) | Ki (OADH; [4]) | Ki (OADH; [5]) | Amax (OADH; [I] 0.5 µM) | Amax (OADH; [I] 2 µM) | Amax (OADH; [I] 10 µM) | stability upon the shelf storage [1] | Amax (OADH; [I] 50 µM) | Amax (OADH; [I] 200 µM) | Amax (OADH; [I] 1000 µM) | Amax (OADH; [I] 5000 µM)
1 |  | O=C(O)CCCCC(=O)P(=O)(O)O [AP, adipoyl phosphonate] | 50 nM and 44 nM | 44 ± 111 nM | 56 ± 118 nM | 48 ± 4 nM | 0.0014 ± 0.0001 µmol/min per mg of protein | 0.0056 ± 0.0022 µmol/min per mg of protein | 0.0088 ± 0.0041 µmol/min per mg of protein | high stability |  |  |  | 
2 |  | O=C(O)CCCC(=O)P(=O)(O)O [GP, glutaryl phosphonate] | 2400 ± 300 nM | 1900 ± 300 nM | 1600 ± 200 nM | 2000 ± 200 nM |  | 0.0026 ± 0.0002 µmol/min per mg of protein | 0.0018 ± 0.0001 µmol/min per mg of protein | high stability | 0.0011 ± 0.00005 µmol/min per mg of protein | 0.0016 ± 0.0001 µmol/min per mg of protein | 0.0013 ± 0.0001 µmol/min per mg of protein | 
3 | 60 fold | O=C(O)CCCC(=O)C(=O)O [OA, 2-oxoadipate] |  |  |  |  |  |  |  |  |  |  |  | 
4 |  | O=C(O)CCC(=O)P(=O)(O)O [SP, succinyl phosphonate] | 128000 ± 9000 nM | 110000 ± 7000 nM | 109000 ± 9000 nM | 116000 ± 6000 nM |  |  | 0.0017 ± 0.0001 µmol/min per mg of protein | high stability | 0.0016 ± 0.0001 µmol/min per mg of protein | 0.0016 ± 0.00005 µmol/min per mg of protein | 0.0014 ± 0.0001 µmol/min per mg of protein | 0.0010 ± 0.00003 µmol/min per mg of protein
